US20120165319A1, “INHIBITORS OF INTERLEUKIN-1 BETA CONVERTING ENZYME” (VERTEX PHARMACEUTICALS INCORPORATED, priority 1995, published 2012)
Like-named read-outs stand apart in the source and are kept apart here.

Experiments:
[1] = tested on: IL-1β production, LPS-challenged mice; test: In vivo acute assay for efficacy as anti-inflammatory agent: LPS-induced IL-1β production in mice; parameters: species or system mouse; conditions: Mus musculus, po, LPS challenged mice, compound PO, 50 mg/kg, read-out: percent inhibition of IL-1β production
Outline: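 Serum IL-1β was measured by ELISA 7 h after an IP dose of 20 mg/kg LPS in CD1 mice, n=6 per group. Compounds in olive oil/DMSO/ethanol 90:5:5 were injected IP 1 h post-LPS (some analogs were dosed at challenge), and separate groups received 50 mg/kg by oral gavage.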

[2] = Pharmacokinetic studies in the mouse (i.v. clearance, plasma levels); type: in vivo; conditions: CD-1, plasma, iv, mouse, 25 mg/kg
Outline: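 Male CD-1 mice (26-31 g) given 25 mg/kg i.v. via tail vein in 0.02M Tris (2.5 mg/ml), groups of 5 per timepoint from 2 to 120 min. Heparinized plasma deproteinated (perchloric acid or acetonitrile) and analysed by reverse-phase HPLC with UV or MS detection against plasma-spiked calibration (0.5 to 50 μg/ml).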

ICE = target: T1, ICE (Homo sapiens, UniProt P29466); test: Enzyme assay with UV-visible substrate (visible ICE assay, Succinyl-Tyr-Val-Ala-Asp-pNitroanilide); type: biochemical
T1 sequence (P29466 120-297 limits assumed): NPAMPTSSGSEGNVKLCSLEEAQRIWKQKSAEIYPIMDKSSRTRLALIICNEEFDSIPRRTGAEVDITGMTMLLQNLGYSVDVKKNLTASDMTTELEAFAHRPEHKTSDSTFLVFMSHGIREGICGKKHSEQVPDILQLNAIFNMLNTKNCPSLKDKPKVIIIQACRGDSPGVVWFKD
T1 sequence (P29466 317-404 limits assumed): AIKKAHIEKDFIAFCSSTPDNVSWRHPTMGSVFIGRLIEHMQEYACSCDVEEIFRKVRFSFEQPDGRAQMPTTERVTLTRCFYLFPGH
Outline: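 Read-out is the rate of pNA chromophore release (mOD/min, linear fit) monitored at 405-603 nm over 20 min at 37° C. Substrate was succinyl-Tyr-Val-Ala-Asp-pNitroanilide, added after a 15 min room-temperature preincubation of ICE with inhibitor.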

[3] = In vivo rat clearance assay; conditions: plasma, iv
Outline: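 Rats cannulated a day beforehand received 10–20 mg/kg by intravenous jugular dosing in propylene glycol/saline with 100 mM sodium bicarbonate. Carotid blood was sampled from 0 to 90 min, and plasma was extracted with acetonitrile/0.1% TFA for HPLC quantification. Clearance from non-linear regression pharmacokinetic analysis.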

[4] = 0 h, administered 0 h relative to time of LPS challenge
[5] = 2 h, administered −2 h relative to time of LPS challenge

Compound | inhibition at 50 mg/kg [1, 4] [%] | inhibition at 50 mg/kg ([1]; 1 h, administered +1 h relative to time of LPS challenge) [%] | inhibition at 50 mg/kg [1, 5] [%] | clearance [2] [mL/min/kg] | Ki (ICE; Table 5) [nM] | melting point [°C] | clearance ([3]; 10-20 mg/kg) [mL/min/kg] | clearance ([2]; Table 17) [mL/min/kg] | Ki (ICE; Table 17) [nM] | clearance ([3]; Table 17) [mL/min/kg]
Cc1ccccc1C(=O)N[C@H]1CCC(=O)N2CCC[C@@H](C(=O)N[C@H](C=O)CC(=O)O)N2C1=O [Compound 404] | 6 | 56 | 55 | 64 | 2.9 | 156 to 159 | 24 |  |  | 
O=C[C@H](CC(=O)O)NC(=O)[C@@H]1CCCN2C(=O)CC[C@H](NC(=O)c3cc4ccccc4[nH]3)C(=O)N12 [Compound 475, [3S(1S,9S)]3-[6,10-Dioxo-9-(indol-2-oylamino)-1,2,3,4,7,8,9,10-octahydro-6H-pyridazino[1,2-a][1,2]diazepine-1-carboxamido]-4-oxobutanoic acid] | 15 |  | 0 | 31 | 5.5 | 150 | 21 |  |  | 
CC(=O)Nc1cccc(C(=O)N[C@H]2CCC(=O)N3CCC[C@@H](C(=O)N[C@H](C=O)CC(=O)O)N3C2=O)c1 [Compound 450, [3S(1S,9S)]3-{9-[(3-Acetamido)benzamido]-6,10-dioxo-1,2,3,4,7,8,9,10-octahydro-6H-pyridazino[1,2-a][1,2]diazepine-1-carboxamido}-4-oxobutanoic acid] | 35 |  | 0 | 18 | 5 | 175 to 179 | 12 |  |  | 
O=C1C[C@H](NC(=O)[C@@H]2CCCN3C(=O)CC[C@H](NC(=O)c4cccc5ccccc45)C(=O)N23)C(OCc2ccccc2)O1 (stereo partly drawn) [Compound 213v, [1S,9S(2RS,3S)]N-(2-Benzyloxy-5-oxotetrahydrofuran-3-yl)-6,10-dioxo-9-(naphth-1-oylamino)-1,2,3,4,7,8,9,10-octahydro-6H-pyridazino[1,2-a][1,2]diazepine-1-carboxamide] |  |  |  |  |  | 121 to 127 |  | 41 | 0.5 | 23
